One series relates to rhinovirus HGP. The series is described as follows: Inhibition of viral cytopathogenic effect (rhinovirus HGP in HeLa cells). The settings on record: Enterovirus, 48 h, read-out: Minimal Inhibitory Concentration against rhinovirus HGP. The series is classed as cell-based. On the procedure: Inhibition of viral cytopathogenic effect
A suspension of HeLa cells (6×10^4) was mixed with rhinovirus HGP (3×10^3 PFU) (plaque forming units) and was plated in a microtest plate where serially diluted compounds to be tested were contained. The cells were then cultured with Eagle's minimum essential medium containing 2% calf serum, 1% tryptose phosphate broth, 100 μg/ml of streptomycin sulfate and 20 unit/ml of penicillin G. Viral c.p.e. (cytopathogenic effect) was observed by a microscope after 2 days culture at 33° C
The antiviral activity of the tested compounds is expressed by the minimal inhibitory concentration at which dose viral c.p.e. is inhibited by 50% as compared to the control culture.

The next series can be described thus: Acute toxicity in mice. The arrangement: species or system ddy mice. The settings on record: mouse, in vivo, day 21.
The next series deals with Coxsackie virus B1. The series is described as follows: Antiviral activity against lethal infection of Coxsackie virus B1 in mice. In kind it is in vivo, ddy mice. The settings on record: up to 21 days. On the procedure: The antiviral activities of compounds of the invention were tested against lethal infection of Coxsackie virus B1 in mice. ddy Mice weighing about 15 g were infected intraperitoneally (i.p.) by about LD50 of the virus. The infected mice were then administered 4 times with the compounds either by oral (p.o.) or intravenous (i.v.) route at -2, 7, 22 and 31 hrs. after infection. The survivals were recorded up to 21 days.

The mark [1] stands for this setting: ip, i.p. single dose, ddy mice 15 ~ 20 g, dissolved in dimethylsulfoxide, read-out: LD50, i.p. route.
Where [2] appears, read: po, ddy mice, suspended in 0.5% carboxymethyl cellulose, read-out: LD50, p.o. route.

Converted amounts (≈) assume the structure as drawn. Read-outs that look alike come from different tables or passages of the source.

With `COc1cc(OC)c(C(=O)/C=C/c2ccc3c(c2)OCO3)c(OP(=O)(O)O)c1` [2',4'-dimethoxy-3,4-(methylenedioxy)-6'-(phosphonooxy)chalcone], the IC50 in the series with rhinovirus HGP turned out to be 0.06 µg/mL (≈ 0.147 µM). In addition, the median lethal dose (LD50) at 504 h was more than 500 mg/kg in the series “Acute toxicity in mice” (setting [1]) and more than 1000 mg/kg in the series “Acute toxicity in mice” (setting [2]). Moreover, in the series “Solubility in water”, the soluble in water result is “soluble in water”.

Consider `COc1cc(OC)c(C(=O)/C=C/c2ccc(C)o2)c(OP(=O)(O)O)c1` [2',4'-dimethoxy-3-(5-methyl-2-furyl)-6'-(phosphonooxy)acrylophenone], for which the IC50 in the series on rhinovirus HGP was 0.04 to 0.1 µg/mL (≈ 0.109 to 0.272 µM). In addition, the LD50 at 504 h in the series “Acute toxicity in mice” (setting [1]) is more than 500 mg/kg; in the series “Acute toxicity in mice” (setting [2]) it was more than 1200 mg/kg. Also, in the series “Solubility in water”, the soluble in water result is “soluble in water”.

As for `COc1cc(OC)c(C(=O)/C=C/c2ccc(SC)cc2)c(OP(=O)(O)O)c1` [2',4'-dimethoxy-4-(methylthio)-6'-(phosphonooxy)chalcone], the IC50 in the series on rhinovirus HGP is 0.02 µg/mL (≈ 0.0487 µM). The 50% lethal dose (LD50) at 504 h was more than 500 mg/kg in “Acute toxicity in mice” (setting [1]) and more than 1000 mg/kg in “Acute toxicity in mice” (setting [2]). In addition, the soluble in water entry in the series “Solubility in water” is “soluble in water”.

On to `COc1cc(OC)c(C(=O)/C=C/c2ccc(C)cc2)c(OP(=O)(O)O)c1` [2',4'-dimethoxy-4-methyl-6'-(phosphonooxy)chalcone], for which the IC50 with rhinovirus HGP was 0.02 µg/mL (≈ 0.0529 µM). In addition, the median lethal dose (LD50) at 504 h in “Acute toxicity in mice” (setting [1]) was more than 500 mg/kg; in “Acute toxicity in mice” (setting [2]) it was more than 2000 mg/kg. The soluble in water result in “Solubility in water” is “soluble in water”.

Take `COc1cc(OC)c(C(=O)/C=C/c2cccs2)c(OP(=O)(O)O)c1` [2',4'-dimethoxy-6'-(phosphonooxy)-3-(2-thienyl)acrylophenone]: the IC50 with rhinovirus HGP lay in the range of 0.04 to 0.1 µg/mL (≈ 0.108 to 0.27 µM). Also, the LD50 at 504 h is more than 500 mg/kg in “Acute toxicity in mice” (setting [1]) and more than 1000 mg/kg in the series “Acute toxicity in mice” (setting [2]). In addition, the soluble in water entry in the series “Solubility in water” is on record as “soluble in water”.

`COc1ccc(/C=C/C(=O)c2c(OC)cc(OC)cc2OC(=O)c2ccc(OC)cc2)cc1` [2',4,4'-trimethoxy-6'-(4-methoxybenzoyloxy)chalcone]: the IC50 in the series on rhinovirus HGP lay in the range of 0.03 to 0.1 µg/mL (≈ 0.0669 to 0.223 µM). Also, the median lethal dose (LD50) at 504 h was more than 500 mg/kg in “Acute toxicity in mice” (setting [1]) and more than 1000 mg/kg in the series “Acute toxicity in mice” (setting [2]).

As for `COc1ccc(/C=C/C(=O)c2c(OC)cc(OC)cc2OP(=O)(O)O)cc1` [2',4,4'-trimethoxy-6'-(phosphonooxy)chalcone], the IC50 with rhinovirus HGP lay within 0.03 to 0.1 µg/mL (≈ 0.0761 to 0.254 µM). The “% Survival” value was determined as 20% in the series on Coxsackie virus B1 (5 mg/kg × 4 i.v.); 60% in the series on Coxsackie virus B1 (10 mg/kg × 4 i.v.); 10% with Coxsackie virus B1 (20 mg/kg × 4 p.o.); 50% with Coxsackie virus B1 (40 mg/kg × 4 p.o.); 70% with Coxsackie virus B1 (80 mg/kg × 4 p.o.). In addition, the median lethal dose (LD50) at 504 h was more than 500 mg/kg in the series “Acute toxicity in mice” (setting [1]) and more than 1000 mg/kg in the series “Acute toxicity in mice” (setting [2]). Moreover, in the series “Solubility in water”, the soluble in water entry is “soluble in water”.

`CC[N+](CC)(CC)CC(=O)Oc1cc(OC)cc(OC)c1C(=O)/C=C/c1ccc(OC)cc1.[Cl-]` [2',4,4'-trimethoxy-6'-(triethylammonioacetoxy) chalcone chloride]: the IC50 with rhinovirus HGP worked out at 0.01 µg/mL. In addition, the median lethal dose (LD50) at 504 h in the series “Acute toxicity in mice” (setting [1]) was 180 mg/kg; in the series “Acute toxicity in mice” (setting [2]), more than 1000 mg/kg. The soluble in water result in the series “Solubility in water” is “soluble in water”.

For `COc1ccc(/C=C/C(=O)c2c(OC)cc(OC)cc2OC(=O)c2ccc(OC)cc2OC)cc1` [2'-(2,4-dimethoxybenzoyloxy)-4,4',6'-trimethoxychalcone], the IC50 in the series with rhinovirus HGP was in the range of 0.03 to 0.1 µg/mL (≈ 0.0627 to 0.209 µM). For the same compound, the figures for the 50% lethal dose (LD50) at 504 h in the series “Acute toxicity in mice” (setting [1]) and in “Acute toxicity in mice” (setting [2]) were more than 500 mg/kg and more than 1000 mg/kg, respectively.

On to `COc1ccc(/C=C/C(=O)c2c(OC)cc(OC)cc2O[C@@H]2O[C@H](COC(C)=O)[C@@H](OC(C)=O)[C@H](OC(C)=O)[C@H]2NC(C)=O)cc1` [2'-(2-acetamido-2-deoxy-3,4,6-tri-O-acetyl-β-D-glucopyranosyloxy)-4,4',6'-trimethoxychalcone], for which, in the series with rhinovirus HGP, the IC50 lay within 0.1 to 0.3 µg/mL (≈ 0.155 to 0.466 µM). For the same compound, the figures for the LD50 at 504 h in “Acute toxicity in mice” (setting [1]) and in the series “Acute toxicity in mice” (setting [2]) were more than 500 mg/kg and more than 2000 mg/kg, respectively.

For the compound `COc1ccc(/C=C/C(=O)c2c(OC)cc(OC)cc2O[C@@H]2O[C@H](CO)[C@@H](O)[C@H](O)[C@H]2NC(C)=O)cc1` [2'-(2-acetamido-2-deoxy-β-D-glucopyranosyloxy)-4,4',6'-trimethoxychalcone], in the series with rhinovirus HGP, the IC50 was 3 to 10 µg/mL (≈ 5.8 to 19.3 µM). For the same compound, the median lethal dose (LD50) at 504 h in “Acute toxicity in mice” (setting [1]) was more than 300 mg/kg; in the series “Acute toxicity in mice” (setting [2]), more than 2000 mg/kg. Also, the soluble in water result in the series “Solubility in water” is on record as “soluble in water”.

For `COc1ccc(/C=C/C(=O)c2c(OC)cc(OC)cc2OC(=O)c2ccccc2)cc1` [2'-(benzoyloxy)-4,4',6'-trimethoxychalcone], the IC50 with rhinovirus HGP fell in the range of 0.03 to 0.1 µg/mL (≈ 0.0717 to 0.239 µM). Further, the LD50 at 504 h is more than 500 mg/kg in the series “Acute toxicity in mice” (setting [1]) and more than 1000 mg/kg in the series “Acute toxicity in mice” (setting [2]).

As to `COc1ccc(/C=C/C(=O)c2c(OC)cc(OC)cc2OC(=O)OCc2ccccc2)cc1` [2'-(benzyloxycarbonyloxy)-4,4',6'-trimethoxychalcone], the IC50 in the series with rhinovirus HGP fell in the range of 0.01 to 0.03 µg/mL (≈ 0.0223 to 0.0669 µM). Besides, the median lethal dose (LD50) at 504 h in the series “Acute toxicity in mice” (setting [1]) was more than 500 mg/kg; in the series “Acute toxicity in mice” (setting [2]) it was more than 1000 mg/kg.

Consider `COc1ccc(/C=C/C(=O)c2c(OC)cc(OC)cc2OC(=O)c2ccco2)cc1` [2'-(furoyloxy)-4,4',6'-trimethoxychalcone], for which, in the series on rhinovirus HGP, the IC50 was 0.03 µg/mL (≈ 0.0735 µM). Moreover, the LD50 at 504 h in the series “Acute toxicity in mice” (setting [1]) was more than 500 mg/kg; in the series “Acute toxicity in mice” (setting [2]), more than 1000 mg/kg.

For the compound `CCOc1cc(OC)cc(OP(=O)(O)O)c1C(=O)/C=C/c1ccc(OC)cc1` [2'-ethoxy-4,4'-dimethoxy-6'-(phosphonooxy)chalcone], the IC50 in the series on rhinovirus HGP is 0.02 µg/mL (≈ 0.049 µM). The “% Survival” value in the series on Coxsackie virus B1 (40 mg/kg × 4 p.o.) is 30%. The LD50 at 504 h in “Acute toxicity in mice” (setting [1]) is more than 500 mg/kg; in “Acute toxicity in mice” (setting [2]), more than 1000 mg/kg. Moreover, the soluble in water entry in “Solubility in water” is given as “soluble in water”.

Take `COCOc1ccc(/C=C/C(=O)c2c(O)cc(OC)cc2OC)cc1` [2'-hydroxy-4',6'-dimethoxy-4-(methoxymethoxy)chalcone]: in the series with rhinovirus HGP, the IC50 fell in the range of 0.03 to 0.1 µg/mL (≈ 0.0871 to 0.29 µM). Further, the values for the LD50 at 504 h in the series “Acute toxicity in mice” (setting [1]) and in “Acute toxicity in mice” (setting [2]) were more than 500 mg/kg and more than 1000 mg/kg, respectively.

On to `COc1cc(O)c(C(=O)/C=C/c2ccc3[nH]cnc3c2)c(OC)c1` [3-(5-benzimidazolyl)-2'-hydroxy-4',6'-dimethoxyacrylophenone], for which the IC50 in the series on rhinovirus HGP fell in the range of 0.1 to 0.3 µg/mL (≈ 0.308 to 0.925 µM). The values for the 50% lethal dose (LD50) at 504 h in the series “Acute toxicity in mice” (setting [1]) and in the series “Acute toxicity in mice” (setting [2]) were more than 100 mg/kg and more than 1000 mg/kg, respectively.

In the case of `CCOc1cc(OC)c(C(=O)/C=C/c2ccc(OC)cc2)c(OP(=O)(O)O)c1` [4'-ethoxy-2',4-dimethoxy-6'-(phosphonooxy)chalcone], in the series on rhinovirus HGP, the IC50 stood at 0.03 µg/mL (≈ 0.0735 µM). The LD50 at 504 h in “Acute toxicity in mice” (setting [1]) is more than 500 mg/kg; in the series “Acute toxicity in mice” (setting [2]), more than 2000 mg/kg. Also, the soluble in water result in “Solubility in water” is “soluble in water”.

As for `COc1cc(O)c(C(=O)/C=C/c2ccc(OC(C)=O)cc2)c(OC)c1` [4-acetoxy-2'-hydroxy-4',6'-dimethoxychalcone], the IC50 in the series on rhinovirus HGP is 0.3 µg/mL (≈ 0.876 µM). The LD50 at 504 h was more than 500 mg/kg in the series “Acute toxicity in mice” (setting [1]) and more than 1000 mg/kg in the series “Acute toxicity in mice” (setting [2]).

As for `CCOc1ccc(/C=C/C(=O)c2c(OC)cc(OC)cc2OP(=O)(O)O)cc1` [4-ethoxy-2',4'-dimethoxy-6'-(phosphonooxy)chalcone], the IC50 in the series on rhinovirus HGP was 0.006 to 0.02 µg/mL (≈ 0.0147 to 0.049 µM). Besides, the values for the median lethal dose (LD50) at 504 h in the series “Acute toxicity in mice” (setting [1]) and in the series “Acute toxicity in mice” (setting [2]) were more than 500 mg/kg and more than 1000 mg/kg, respectively. For the same compound, in the series “Solubility in water”, the soluble in water entry was “soluble in water”.

Values taken from patent US4327088A, “Phosphonooxy- or glycosyloxy-substituted acrylophenones, compositions and uses thereof” (priority 1979, dated 1982).
